Experimental findings from patent US20240336643A1, “BIFUNCTIONAL COMPOUNDS THAT DEGRADE ALK AND USES THEREOF” (DANA-FARBER CANCER INSTITUTE, INC., priority 2021, published 2024) are described below.

Where two headings read alike, the source gives them in different places.

Data set [1] has as its target BAF3 Cells with Variant 3 EML4-ALK^G1202R (Homo sapiens, UniProt Q9UM73, G1202R, cells depend on it). Conditions: read-out: BAF3 Cells with Variant 3 EML4-ALK^G1202R (IC50).
Protocol: (§1) The 3-day viability assay was performed by seeding the cells at 750 cells per 50 μL volume of complete medium per well. Following the seeding of the cells, the plate was briefly spun down to let the cells settle at the bottom of the plate before treating with compounds at a dose range using d300e. Once the cells were treated, the cells were incubated at 37° C. with 5% CO2 for 72 hours. At the end of the treatment duration, the plate was brought to root temperature to equilibrate before adding 12.5 μL of the CellTiter-Glo® reagent per well. The plate was shaken using a plate shaken at 50 rpm for 5 minutes at room temperature and then incubated for 5 minutes in the dark before the plates were read using a luminescence based plate reader.
(§2) IC50 values were determined using a non-linear regression curve fit in GraphPad Prism (Version 9.1.0).
The target of data set [2] is HiBiT G1202R Variant 1 EML4-ALK (Homo sapiens, UniProt Q9UM73, G1202R). Type of data set: cell-based. Conditions: Ba/F3 cells, 0.0003-2 μM, 4 hours; for DC50: read-out: BAF3 Cellular Degradation - HiBiT G1202R Variant 1 EML4-ALK: DC50; for Dmax: BaF3, maximal level of degradation, read-out: BAF3 Cellular Degradation - HiBiT G1202R Variant 1 EML4-ALK: Dmax.
HiBiT G1202R Variant 1 EML4-ALK, sequence (Q9UM73 with tags, fused parts or gaps G1202R): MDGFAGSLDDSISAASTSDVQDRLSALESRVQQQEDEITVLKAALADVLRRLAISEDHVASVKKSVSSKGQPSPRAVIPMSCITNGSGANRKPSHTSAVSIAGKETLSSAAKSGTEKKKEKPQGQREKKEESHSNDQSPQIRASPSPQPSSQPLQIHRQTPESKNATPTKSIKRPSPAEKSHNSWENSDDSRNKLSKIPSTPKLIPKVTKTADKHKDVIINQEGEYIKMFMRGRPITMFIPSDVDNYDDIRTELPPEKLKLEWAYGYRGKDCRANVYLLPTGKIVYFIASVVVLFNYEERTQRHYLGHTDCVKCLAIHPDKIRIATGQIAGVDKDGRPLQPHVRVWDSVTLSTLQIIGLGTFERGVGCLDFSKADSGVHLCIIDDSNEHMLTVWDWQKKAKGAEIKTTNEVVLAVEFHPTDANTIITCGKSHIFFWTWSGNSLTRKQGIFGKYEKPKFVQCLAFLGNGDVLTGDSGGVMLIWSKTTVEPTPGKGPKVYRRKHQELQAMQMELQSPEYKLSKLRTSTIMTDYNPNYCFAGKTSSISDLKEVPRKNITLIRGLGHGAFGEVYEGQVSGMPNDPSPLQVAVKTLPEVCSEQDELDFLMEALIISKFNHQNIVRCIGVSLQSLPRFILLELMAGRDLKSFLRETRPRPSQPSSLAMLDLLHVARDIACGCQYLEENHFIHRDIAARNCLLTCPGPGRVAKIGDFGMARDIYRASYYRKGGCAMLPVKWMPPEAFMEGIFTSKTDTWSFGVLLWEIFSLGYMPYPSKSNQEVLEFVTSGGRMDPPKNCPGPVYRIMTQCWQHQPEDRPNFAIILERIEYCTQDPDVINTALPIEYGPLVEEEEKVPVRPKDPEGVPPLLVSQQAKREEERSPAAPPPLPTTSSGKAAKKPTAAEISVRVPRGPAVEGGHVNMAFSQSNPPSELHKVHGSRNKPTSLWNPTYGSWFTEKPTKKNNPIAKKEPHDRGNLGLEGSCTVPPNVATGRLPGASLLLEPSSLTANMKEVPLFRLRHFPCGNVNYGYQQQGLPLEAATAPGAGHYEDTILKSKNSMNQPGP
HiBiT G1202R Variant 1 EML4-ALK, sequence (Q96SW2 whole entry partner): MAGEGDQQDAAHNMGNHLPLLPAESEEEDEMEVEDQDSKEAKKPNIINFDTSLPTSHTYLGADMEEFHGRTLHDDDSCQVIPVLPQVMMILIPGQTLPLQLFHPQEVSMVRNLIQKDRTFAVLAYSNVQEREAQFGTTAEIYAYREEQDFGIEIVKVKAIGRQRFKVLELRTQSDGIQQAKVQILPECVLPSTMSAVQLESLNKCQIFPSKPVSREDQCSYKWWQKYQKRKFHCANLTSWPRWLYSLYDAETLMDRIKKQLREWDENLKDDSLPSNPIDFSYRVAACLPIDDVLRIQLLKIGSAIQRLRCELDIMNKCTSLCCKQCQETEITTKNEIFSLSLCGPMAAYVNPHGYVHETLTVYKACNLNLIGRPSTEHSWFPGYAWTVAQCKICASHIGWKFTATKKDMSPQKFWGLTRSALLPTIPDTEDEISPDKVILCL
HiBiT G1202R Variant 1 EML4-ALK, sequence (Q3U1J4 whole entry partner): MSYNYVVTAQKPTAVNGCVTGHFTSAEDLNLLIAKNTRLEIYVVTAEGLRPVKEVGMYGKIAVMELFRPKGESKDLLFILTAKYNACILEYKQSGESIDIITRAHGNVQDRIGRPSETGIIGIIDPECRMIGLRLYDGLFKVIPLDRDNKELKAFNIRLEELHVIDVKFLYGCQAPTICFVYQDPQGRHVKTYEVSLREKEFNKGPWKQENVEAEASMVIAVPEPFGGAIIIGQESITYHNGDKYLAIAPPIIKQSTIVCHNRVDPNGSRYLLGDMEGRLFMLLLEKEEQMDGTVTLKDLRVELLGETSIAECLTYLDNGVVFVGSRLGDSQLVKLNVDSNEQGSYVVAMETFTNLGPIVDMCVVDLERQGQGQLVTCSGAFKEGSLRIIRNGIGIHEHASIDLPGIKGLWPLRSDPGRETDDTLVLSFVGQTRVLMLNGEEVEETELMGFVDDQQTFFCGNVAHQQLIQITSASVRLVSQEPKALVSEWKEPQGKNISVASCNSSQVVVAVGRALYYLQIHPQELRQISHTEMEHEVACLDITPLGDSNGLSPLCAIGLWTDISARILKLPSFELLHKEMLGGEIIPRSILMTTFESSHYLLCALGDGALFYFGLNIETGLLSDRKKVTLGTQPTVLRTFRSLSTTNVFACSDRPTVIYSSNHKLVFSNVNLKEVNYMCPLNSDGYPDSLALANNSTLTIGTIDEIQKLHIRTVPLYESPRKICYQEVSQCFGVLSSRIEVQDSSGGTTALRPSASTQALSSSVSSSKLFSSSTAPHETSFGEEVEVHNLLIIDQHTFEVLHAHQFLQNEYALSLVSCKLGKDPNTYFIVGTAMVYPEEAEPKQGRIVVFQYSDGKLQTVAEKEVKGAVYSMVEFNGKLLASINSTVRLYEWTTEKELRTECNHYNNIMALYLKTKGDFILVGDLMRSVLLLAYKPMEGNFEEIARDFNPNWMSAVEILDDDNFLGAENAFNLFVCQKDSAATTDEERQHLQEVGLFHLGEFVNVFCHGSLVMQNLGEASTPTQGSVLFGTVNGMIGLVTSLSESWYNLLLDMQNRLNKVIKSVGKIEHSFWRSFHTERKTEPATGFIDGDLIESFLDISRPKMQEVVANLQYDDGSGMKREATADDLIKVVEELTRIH
Data set [3] addresses BAF3 Cells with Variant 3 EML4-ALK^WT (Homo sapiens, UniProt Q9UM73). Conditions: read-out: BAF3 Cells with Variant 3 EML4-ALK^WT (IC50); 72 hours, CellTiter-Glo.
Protocol: as §1, §2
The nature of data set [4]: Mouse oral PK study. Type of data set: in vivo, male C57BI/6 mice. Conditions: for Vd: C57BI/6, mouse, iv, 2 mg/kg. Here is the method: Standard oral PK studies were conducted using male C57BI/6 mice obtained from BioDuro Shanghai. […] Plasma concentrations of compound 1 reported at each of the 9 time points (5 min, 15 min, 30 min, 1 h, 2 h, 4 h, 6 h, 8 h and 24 h post dosing) are the average values from 3 test animals.

Data set [5] has as its system proteins in MOLT4 cells. Briefly: Quantitative mass spectrometry proteomics, relative protein abundance. Type of data set: cell-based. The settings on record: 1 μM, 5 hours, cut-offs 2-fold change, p value 0.001. As to the method:
Relative fold-change (FC) abundance of proteins in MOLT4 cells treated with compound 1 (1 μM) for 5 hours was determined using quantitative mass spectrometry proteomics (protocol was published previously: Donovan et al., Cell 183:1714-1731 (2020)). Dotted lines signify a 2-fold change in protein levels and a p value of 0.001. […] FER is a cytoplasmic tyrosine kinase and its kinase function […] for STAT3 phosphorylation in tumor cell transformation and growth, but siRNA knock down of FER leads to decreased phospho-STAT3 and reduced STAT3 activation and inhibition of tumor growth in vivo (Lennartsson et al., J. Biol. Chem. 288:15736-15744 (2013)). STAT3 activation plays a key role in several cancers, including colon cancer (Gargalionis et al., Biomedicines 9:1016 (2021)). Therefore, inhibition of STAT3 signaling through depletion of FER using a targeted protein degrader is useful in the treatment of such cancers.

The target of data set [6] is T1, FER in HCT116 cells (Homo sapiens, UniProt P16591).
T1 construct: endogenous in cells; host or cells: HCT116
T1 sequence (P16591 whole entry): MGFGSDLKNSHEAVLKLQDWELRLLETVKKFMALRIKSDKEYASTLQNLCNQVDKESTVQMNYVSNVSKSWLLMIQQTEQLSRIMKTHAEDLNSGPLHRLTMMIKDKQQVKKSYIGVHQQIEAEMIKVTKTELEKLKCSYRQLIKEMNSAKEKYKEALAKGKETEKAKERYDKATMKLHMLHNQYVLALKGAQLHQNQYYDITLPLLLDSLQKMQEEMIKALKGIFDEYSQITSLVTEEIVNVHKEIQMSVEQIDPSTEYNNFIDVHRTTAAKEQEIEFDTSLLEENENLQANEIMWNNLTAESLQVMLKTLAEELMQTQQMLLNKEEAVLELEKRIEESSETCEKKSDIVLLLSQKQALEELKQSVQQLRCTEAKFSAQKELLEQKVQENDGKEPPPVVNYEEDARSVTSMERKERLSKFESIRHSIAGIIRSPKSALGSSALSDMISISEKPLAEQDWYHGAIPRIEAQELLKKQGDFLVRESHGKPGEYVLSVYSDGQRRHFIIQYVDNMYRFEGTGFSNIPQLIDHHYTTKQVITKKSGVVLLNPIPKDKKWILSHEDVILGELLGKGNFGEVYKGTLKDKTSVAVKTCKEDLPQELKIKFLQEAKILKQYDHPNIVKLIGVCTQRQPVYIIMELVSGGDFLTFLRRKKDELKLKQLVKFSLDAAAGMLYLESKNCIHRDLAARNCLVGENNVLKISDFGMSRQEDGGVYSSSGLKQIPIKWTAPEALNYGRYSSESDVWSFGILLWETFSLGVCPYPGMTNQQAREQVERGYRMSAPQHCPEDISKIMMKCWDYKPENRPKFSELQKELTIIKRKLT
Nature of the data set: Western blotting for FER degradation. The settings on record: various concentrations, 24 hours. Type of data set: cell-based. As to the method:
HCT116 cells were treated with compound 1 or a FER kinase inhibitor E260 (Elkis et al., Nat. Commun. 8:940 (2017)) at various concentrations for 24 hours, along with DMSO (not shown) and ethanol as controls (FIG. 2). 18 μg of protein was loaded in each lane and Western blotting was performed for FER, CRBN, and loading control ACTIN.

[7] abbreviates: male, C57BI/6, 10 mg/kg, PO, single dose, plasma.
Setting [8] is: male, C57BI/6, IV, single 2 mg/kg, plasma.

BAF3 Cells with Variant 3 EML4-ALK^G1202R, sequence (Q9UM73 whole entry G1202R): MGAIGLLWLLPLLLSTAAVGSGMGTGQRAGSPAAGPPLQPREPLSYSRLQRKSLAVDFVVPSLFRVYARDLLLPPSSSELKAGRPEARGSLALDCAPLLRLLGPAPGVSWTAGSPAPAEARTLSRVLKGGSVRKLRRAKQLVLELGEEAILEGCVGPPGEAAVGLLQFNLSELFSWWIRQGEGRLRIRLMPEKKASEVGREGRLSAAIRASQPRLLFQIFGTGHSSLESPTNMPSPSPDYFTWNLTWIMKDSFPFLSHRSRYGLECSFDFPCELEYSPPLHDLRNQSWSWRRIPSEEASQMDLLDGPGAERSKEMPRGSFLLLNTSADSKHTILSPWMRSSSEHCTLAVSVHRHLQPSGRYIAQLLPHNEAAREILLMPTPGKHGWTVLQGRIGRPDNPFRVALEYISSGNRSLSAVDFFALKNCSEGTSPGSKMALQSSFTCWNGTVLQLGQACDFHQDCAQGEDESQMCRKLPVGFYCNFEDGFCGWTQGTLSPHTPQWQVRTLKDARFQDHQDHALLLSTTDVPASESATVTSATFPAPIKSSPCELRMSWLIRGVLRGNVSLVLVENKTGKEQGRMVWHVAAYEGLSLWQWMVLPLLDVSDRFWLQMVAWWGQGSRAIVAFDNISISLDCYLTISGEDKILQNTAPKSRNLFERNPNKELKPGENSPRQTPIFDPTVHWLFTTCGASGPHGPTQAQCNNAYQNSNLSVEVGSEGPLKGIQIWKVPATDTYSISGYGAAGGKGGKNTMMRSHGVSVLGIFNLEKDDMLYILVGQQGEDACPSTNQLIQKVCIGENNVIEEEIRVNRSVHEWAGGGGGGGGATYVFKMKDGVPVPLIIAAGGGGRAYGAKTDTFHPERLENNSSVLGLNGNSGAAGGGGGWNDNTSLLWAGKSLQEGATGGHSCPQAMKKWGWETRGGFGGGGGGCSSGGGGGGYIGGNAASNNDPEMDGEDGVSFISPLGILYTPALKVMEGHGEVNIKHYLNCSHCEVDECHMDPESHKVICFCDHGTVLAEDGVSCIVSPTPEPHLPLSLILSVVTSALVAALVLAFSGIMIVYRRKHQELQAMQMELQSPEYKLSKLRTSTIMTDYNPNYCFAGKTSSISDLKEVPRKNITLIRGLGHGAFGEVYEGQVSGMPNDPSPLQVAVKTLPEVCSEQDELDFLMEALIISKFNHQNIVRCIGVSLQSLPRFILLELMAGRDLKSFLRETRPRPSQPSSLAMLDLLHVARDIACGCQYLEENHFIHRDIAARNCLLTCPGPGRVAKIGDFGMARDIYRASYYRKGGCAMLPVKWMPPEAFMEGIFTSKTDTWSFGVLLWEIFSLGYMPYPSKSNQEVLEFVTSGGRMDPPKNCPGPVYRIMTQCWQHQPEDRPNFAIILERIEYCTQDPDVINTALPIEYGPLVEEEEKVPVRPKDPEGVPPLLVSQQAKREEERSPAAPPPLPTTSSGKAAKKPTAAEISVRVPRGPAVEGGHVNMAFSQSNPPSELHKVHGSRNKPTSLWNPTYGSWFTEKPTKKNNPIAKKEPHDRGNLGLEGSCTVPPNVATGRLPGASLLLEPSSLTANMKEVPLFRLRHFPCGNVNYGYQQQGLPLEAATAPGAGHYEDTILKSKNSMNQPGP
BAF3 Cells with Variant 3 EML4-ALK^WT, sequence (Q9UM73 whole entry, change not shown): as the sequence (Q9UM73 whole entry G1202R) above, with R1202G counted along it

As to `COc1cc(N2CCC(N3CCN(C)CC3)CC2)ccc1Nc1ncc(Cl)c(Nc2ccccc2P(C)(C)=O)n1` [Brigatinib], the GI50 in data set [1] (baf3 cells with variant 3 eml4-alk^g1202r) came out at 183 nM.

Consider `COc1cc(C2CCN(C[C@H]3CCN(c4ccc5c(c4)C(=O)N(C4CCC(=O)NC4=O)C5=O)C3)CC2)c(C)cc1Nc1ncc(Cl)c(Nc2ccccc2S(=O)(=O)C(C)C)n1` (stereo partly drawn) [Compound 8, 5-[(3R)-3-[(4-{4-[(5-chloro-4-{[2-(propane-2-sulfonyl)phenyl]amino}pyrimidin-2-yl)amino]-5-methoxy-2-methylphenyl}piperidin-1-yl)methyl]pyrrolidin-1-yl]-2-(2,6-dioxopiperidin-3-yl)-2,3-dihydro-1H-isoindole-1,3-dione], for which, in data set [2], the DC50 is 124 nM.

Turning to `CNC(=O)c1ccccc1Nc1nc(Nc2cc(C)c(C3CCN(CC4CN(c5ccc6c(c5)C(=O)N(C5CCC(=O)NC5=O)C6=O)C4)CC3)cc2OC(C)C)ncc1C(F)(F)F` (stereo not drawn) [Compound 18, 2-{[2-({4-[1-({1-[2-(2,6-dioxopiperidin-3-yl)-1,3-dioxo-2,3-dihydro-1H-isoindol-5-yl]azetidin-3-yl}methyl)piperidin-4-yl]-5-methyl-2-(propan-2-yloxy)phenyl}amino)-5-(trifluoromethyl)pyrimidin-4-yl]amino}-N-methylbenzamide], in data set [2], the half-maximal degradation concentration (DC50) was found to be 71 nM and the Dmax stood at 68%.

In the case of `COc1cc(C2CCN(C[C@@H]3CCN(c4ccc5c(c4)C(=O)N(C4CCC(=O)NC4=O)C5=O)C3)CC2)c(C)cc1Nc1ncc(Cl)c(Nc2ccccc2S(=O)(=O)C(C)C)n1` (stereo partly drawn) [Compound 9], in data set [2], the DC50 was 41 nM and the greatest degradation seen (Dmax) was 86%.

Take `CCc1cc2c(cc1N1CC(CN3CCC(c4ccc5c(c4)CN(C4CCC(=O)NC4=O)C5=O)CC3)C1)C(C)(C)c1[nH]c3cc(C#N)ccc3c1C2=O` (stereo not drawn) [Compound 23]: in data set [2], the 50% degradation concentration (DC50) is 95 nM and the maximal degradation (Dmax) was determined as 63%.

As for `CCc1cc2c(cc1C#CCCCN1CCC(c3ccc4c(c3)CN(C3CCC(=O)NC3=O)C4=O)CC1)C(C)(C)c1[nH]c3cc(C#N)ccc3c1C2=O` (stereo not drawn) [Compound 22], in data set [2], the DC50 was 6 nM and the Dmax came out at 82%.

Regarding `Cc1cc(Nc2ncc(Cl)c(Nc3ccccc3S(=O)(=O)C(C)C)n2)c(OC(C)C)cc1C1CCNCC1` [Ceritinib], the GI50 in data set [3] was determined as 85 nM; in data set [1] (72 hours, CellTiter-Glo) it was 357 nM.

Regarding `CNC(=O)c1ccccc1Nc1nc(Nc2cc(C)c(C3CCN(CC4CCN(c5ccc6c(c5)C(=O)N(C5CCC(=O)NC5=O)C6=O)CC4)CC3)cc2OC(C)C)ncc1C(F)(F)F` (stereo not drawn) [Compound 19, 2-{[2-({4-[1-({1-[2-(2,6-dioxopiperidin-3-yl)-1,3-dioxo-2,3-dihydro-1H-isoindol-5-yl]piperidin-4-yl}methyl)piperidin-4-yl]-5-methyl-2-(propan-2-yloxy)phenyl}amino)-5-(trifluoromethyl)pyrimidin-4-yl]amino}-N-methylbenzamide], in data set [2], the DC50 amounted to 114 nM and the Dmax worked out at 55%.

On to `COc1cc(CN2CCC(O)(c3ccc4c(c3)CN(C3CCC(=O)NC3=O)C4=O)CC2)c(C)cc1Nc1ncc(Cl)c(Nc2ccccc2S(=O)(=O)C(C)C)n1` (stereo not drawn) [Compound 26, 3-(5-(1-(4-((5-chloro-4-((2-(isopropylsulfonyl)phenyl)amino)pyrimidin-2-yl)amino)-5-methoxy-2-methylbenzyl)-4-hydroxypiperidin-4-yl)-1-oxoisoindolin-2-yl)piperidine-2,6-dione], for which, in data set [2], the DC50 was found to be 147 nM and the maximal degradation (Dmax) stood at 62%.

For the compound `COc1cc(C2CCN(CCC3CN(c4ccc5c(c4)C(=O)N(C4CCC(=O)NC4=O)C5=O)C3)CC2)c(C)cc1Nc1ncc(Cl)c(Nc2ccccc2S(=O)(=O)C(C)C)n1` (stereo not drawn) [Compound 2], in data set [2], the DC50 came out at 10 nM and the maximal degradation (Dmax) amounted to 76%.

In data set [4] (IV, single 2 mg/kg, plasma), `COc1cc(C2CCN(CC3CN(c4ccc5c(c4)C(=O)N(C4CCC(=O)NC4=O)C5=O)C3)CC2)c(C)cc1Nc1ncc(Cl)c(Nc2ccccc2S(=O)(=O)C(C)C)n1` (stereo not drawn) [Compound 1, 5-{3-[(4-{4-[(5-chloro-4-{[2-(propane-2-sulfonyl)phenyl]amino}pyrimidin-2-yl)amino]-5-methoxy-2-methylphenyl}piperidin-1-yl)methyl]azetidin-1-yl}-2-(2,6-dioxopiperidin-3-yl)-2,3-dihydro-1H-isoindole-1,3-dione] displayed an AUCExtr of 1.65%. In addition, the F in data set [4] (PO versus IV) is 28.0%. In data set [4] (PO, single dose, plasma), this compound displayed an AUCExtr of 5.08% and an AUCInf/D of 0.605 hr*kg*nM/nmol. In addition, the “In vivo metabolic stability, plasma exposure and clearance (in words)” value in data set [4] (conclusion from Table 3) is “good in vivo metabolic stability, plasma exposure, and slow clearance rate”. In data set [4] (setting [7]), this compound displayed an AUC(0-inf) of 7.08 µM·h, an AUC(0-t) of 6.73 µM·h, a Cmax of 658 nM and an MRT inf of 8.51 h. In data set [4] (setting [7]), the time to peak (Tmax) was 1.67 h and the half-life is 5.37 h. In data set [4] (setting [8]), this compound returned an AUC(0-inf) of 5.05 µM·h, an exposure AUC(0-t) of 4.97 µM·h, a C0 of 2340 nM and an MRT inf of 4.95 h. In data set [4] (setting [8]), this compound had a clearance of 7.73 mL/min/kg and a half-life of 4.41 h. Also, the Vd in data set [4] (male, plasma, IV, single 2 mg/kg, plasma, read-out: Vss) was 2.29 L/kg. Moreover, the Vd in data set [4] (male, plasma, IV, single 2 mg/kg, plasma, read-out: Vz) came to 2.95 L/kg. Besides, in data set [5], the “Relative fold-change abundance of proteins (downregulated proteins)” value is “downregulated PLK4, CAMK1D, FAK2, RSK1, ACK1 and FER”. In data set [6], the “Downregulation of FER (Western blot)” value is given as “significantly downregulated FER”.

For `COc1cc(C2CCN(CC3CC4(C3)CN(c3ccc5c(c3)C(=O)N(C3CCC(=O)NC3=O)C5=O)C4)CC2)c(C)cc1Nc1ncc(Cl)c(Nc2ccccc2S(=O)(=O)C(C)C)n1` (stereo not drawn) [Compound 16, 5-(6-((4-(4-((5-chloro-4-((2-(isopropylsulfonyl)phenyl)amino)pyrimidin-2-yl)amino)-5-methoxy-2-methylphenyl)piperidin-1-yl)methyl)-2-azaspiro[3.3]heptan-2-yl)-2-(2,6-dioxopiperidin-3-yl)isoindoline-1,3-dione], the half-maximal degradation concentration (DC50) in data set [2] was determined as 79 nM.

Turning to `CNC(=O)c1ccccc1Nc1nc(Nc2cc(C)c(C3CCN(CC4CCN(c5ccc6c(c5)C(=O)N(C5CCC(=O)NC5=O)C6=O)CC4)CC3)cc2OC)ncc1C(F)(F)F` (stereo not drawn) [Compound 17, 2-{[2-({4-[1-({1-[2-(2,6-dioxopiperidin-3-yl)-1,3-dioxo-2,3-dihydro-1H-isoindol-5-yl]piperidin-4-yl}methyl)piperidin-4-yl]-2-methoxy-5-methylphenyl}amino)-5-(trifluoromethyl)pyrimidin-4-yl]amino}-N-methylbenzamide], in data set [2], the DC50 turned out to be 23 nM and the greatest degradation seen (Dmax) turned out to be 77%.
